{"source": "patent US5283372A", "about": "“Preparation of purified optical isomers of desflurane” (Anaquest, Inc., priority 1993, dated 1994)", "key": {"[1]": {"system": "Male Swiss-Webster mice (loss of righting)", "test": "Loss of righting (LOR) in mice: potency, onset and recovery of inhaled anesthetic", "format": "in vivo, mouse (Swiss-Webster)", "details": "mouse; for Recovery (mean time to ambulation) / Onset (mean time to LOR): at the EC50 concentration; for Onset (mean time to LOR): six animals; for EC50 (loss of righting): inhalation in 1900 ml container flushed with 100% oxygen, LOR within two minutes and supine for thirty seconds, * significant at P<0.05", "description": "Male Swiss-Webster mice, about 22-25 g, were allowed free access to food and water and housed ten to a cage in a temperature (22.2°) and humidity (50%) controlled vivarium with a twelve hour light-dark cycle.\nThe test anesthetic was pipetted into a 1900 ml container previously flushed for one minute with 100% oxygen. The container was sealed, rotated to insure complete evaporation of test compound and allowed to stand for five minutes. The approximate concentration of the anesthetic was calculated. Six animals were tested at each concentration of racemate and its purified optical isomers. The animals were placed in the container in groups of three. The container was rotated periodically.\nThe percentage of mice to lose their righting ability within two minutes and remain supine for thirty seconds was noted. Loss of righting (LOR) at four concentrations, including EC0 and EC100, were used to determine the EC50. Subsequently, onset (defined as the mean time for six animals to LOR) and recovery (defined as the mean time to ambulation) were determined at the EC50 concentration. Potency (defined by the dose-response curve) of each compound was compared using a parallel line analysis. Onset and recovery means were compared using a Student's T-Test P<0.05. The results are reported in Table I. In the Table, \"S.D.\" is standard deviation, \"C.L.\" is confidence level and \"EC50 \" is the effective concentration in one half of the animals tested."}, "[2]": {"system": "Male Sprague-Dawley rats (loss of righting)", "test": "Loss of righting (LOR) in rats: onset and recovery at EC100", "format": "in vivo, rat (Sprague-Dawley)", "details": "rat; for Recovery (of righting): EC100 concentration, removed five minutes after LOR; for Onset of LOR: at EC100 concentration, five rats per anesthetic", "description": "(§1) Male Sprague-Dawley rats were maintained as were the mice in Example 7. The animals were trained to maintain their balance for ninety seconds on a rotarod revolving at 10 rpm. The animals were allowed to rest five minutes and again trained to remain on the rotating rotarod for ninety seconds.\n(§2) The rats were individually placed into containers which had been purged with 100% oxygen for one minute, and which contained a known concentration of racemic desflurane, or its positive isomer or negative isomer which had been previously determined to be equal to the EC100. Five rats were utilized for each anesthetic.\nThe onset of LOR was recorded for each animal. The animals remained in the container for five minutes following LOR, and were then removed. Recovery was determined, and the mean calculated.\nOnset and recovery were compared across anesthetics using a Student's T Test."}, "[3]": {"system": "Male Sprague-Dawley rats (recovery of motor coordination)", "test": "Rotarod testing in rats after recovery of righting (Rotarod Index)", "format": "in vivo, rat (Sprague-Dawley)", "details": "for Rotarod Index (ROI): ROI=(First+Second×2/3+Third×1/3)/3, average time on rod in seconds at 0, 90, 180 seconds after recovery of righting, maximum 60, rotarod 10 rpm", "description": "as §1, §2\nFollowing recovery of righting, the animals were placed on the rotarod 0, 90, and 180 seconds thereafter and the length of time they were able to remain on the rod was recorded in each instance. Animals that remained on the rod for a full ninety seconds were not subsequently tested. The durations of maintaining balance were noted and averaged, and the number of animals meeting the ninety second criterion were recorded at each time interval.\nA Rotarod Index (ROI) was then calculated according to the following formula.\nROI=(First+Second×2/3+Third×1/3)/3 where First, Second and Third are the average time on the rod in seconds for the respective time intervals. Animals remaining on the rod for the full ninety seconds during either the interval beginning at zero time or ninety seconds were scored with ninety seconds for all subsequent intervals. Therefore, the maximum ROI attainable was […]. The ROI value measures the recovery of motor coordination following drug-induced LOR."}}, "note": "“Also recorded” adds a separate entry of the source."}
{"smiles": "FC(F)OC(F)C(F)(F)F", "note": "(single isomer, unassigned; (+)) [Positive Isomer, (+)-2-(difluoromethoxy-1,1,1,2-tetrafluoroethane]", "values": [{"measurement": "Recovery (mean time to ambulation)", "setting": "[1]", "result": 0.31, "unit": "min"}, {"measurement": "Onset (mean time to LOR)", "setting": "[1]", "result": 1.44, "unit": "min"}, {"measurement": "EC50 (loss of righting)", "setting": "[1]", "result": 4.1, "unit": "%"}, {"measurement": "Potency (in words)", "setting": "[1]; highly purified positive isomer, comparison with negative isomer or racemate, listed as positive isomer of desflurane", "result": "greater potency; also recorded: improved potency"}, {"measurement": "Recovery (of righting)", "setting": "[2]", "result": 0.88, "unit": "min"}, {"measurement": "Onset of LOR", "setting": "[2]", "result": 0.92, "unit": "min"}, {"measurement": "Rotarod test / time to become \"street fit\" (in words)", "setting": "[3]; comparison with racemate and negative isomer", "result": "clearly superior in the rotarod test; also recorded: superior to the racemate and the negative isomer in terms of the time in which a patient would become \"street fit\""}, {"measurement": "Rotarod Index (ROI)", "setting": "[3]; rat", "result": 38.6}, {"measurement": "ROI value (in words)", "setting": "[3]; rat, comparison of isomers", "result": "larger ROI value"}]}
{"smiles": "FC(F)OC(F)C(F)(F)F", "note": "(single isomer, unassigned; (-)) [Negative Isomer, (-)-2-(difluoromethoxy)-1,1,1,2-tetrafluoroethane]", "values": [{"measurement": "Recovery (mean time to ambulation)", "setting": "[1]", "result": 0.25, "unit": "min"}, {"measurement": "Onset (mean time to LOR)", "setting": "[1]", "result": 1.05, "unit": "min"}, {"measurement": "EC50 (loss of righting)", "setting": "[1]", "result": 4.6, "unit": "%"}, {"measurement": "Recovery (of righting)", "setting": "[2]", "result": 0.31, "unit": "min"}, {"measurement": "Onset of LOR", "setting": "[2]", "result": 1.05, "unit": "min"}, {"measurement": "Recovery time (in words)", "setting": "[2]; comparison of isomers", "result": "faster recovery time"}, {"measurement": "Rotarod Index (ROI)", "setting": "[3]; rat", "result": 28.8}]}
{"smiles": "FC(F)OC(F)C(F)(F)F", "note": "(racemic) [Racemic Desflurane, 2-(difluoromethoxy)-1,1,1,2-tetrafluoroethane, reference compound]", "values": [{"measurement": "Recovery (mean time to ambulation)", "setting": "[1]", "result": 0.12, "unit": "min"}, {"measurement": "Onset (mean time to LOR)", "setting": "[1]", "result": 1.72, "unit": "min"}, {"measurement": "EC50 (loss of righting)", "setting": "[1]", "result": 4.75, "unit": "%"}, {"measurement": "Recovery (of righting)", "setting": "[2]", "result": 1.38, "unit": "min"}, {"measurement": "Onset of LOR", "setting": "[2]", "result": 1.04, "unit": "min"}, {"measurement": "Rotarod Index (ROI)", "setting": "[3]; rat", "result": 32.4}]}
